# Reference: PubChem BioAssay (NCI)
#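 Growth conditions: 96-well plates. Treatment: test compound, 48 hours, 5 concentrations. Analysis: linear interpolation between bracketing concentrations; unreached endpoints set to highest concentration. The concentration for full growth arrest is given as TGI.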 Where a SMILES comes first, the peptide text is derived from it.
# Experiments:
# Assay in all cases: NCI tumour cell line growth inhibition, 48 h
# CAKI-1 renal = tested on: CAKI-1 renal
# CCRF-CEM leukemia = tested on: CCRF-CEM leukemia
# KM12 colon = tested on: KM12 colon
# MOLT-4 leukemia = tested on: MOLT-4 leukemia
# NCI/ADR-RES ovarian = tested on: NCI/ADR-RES ovarian
# OVCAR-8 ovarian = tested on: OVCAR-8 ovarian
# RPMI-8226 leukemia = tested on: RPMI-8226 leukemia
# SNB-19 CNS = tested on: SNB-19 CNS
# SR leukemia = tested on: SR leukemia
# T-47D breast = tested on: T-47D breast
# UACC-257 melanoma = tested on: UACC-257 melanoma
# UACC-62 melanoma = tested on: UACC-62 melanoma
Compound,TGI (CAKI-1 renal),TGI (CCRF-CEM leukemia),TGI (KM12 colon),TGI (MOLT-4 leukemia),TGI (NCI/ADR-RES ovarian),TGI (OVCAR-8 ovarian),TGI (RPMI-8226 leukemia),TGI (SNB-19 CNS),TGI (SR leukemia),TGI (T-47D breast),TGI (UACC-257 melanoma),TGI (UACC-62 melanoma)
CC(Cc1ccc2c(c1)OCO2)N(C)C(=O)C1=CCN(C)CC1 (centres undefined),> 100 µM,> 100 µM,> 100 µM,> 100 µM,> 100 µM,> 100 µM,> 100 µM,> 100 µM,> 100 µM,> 100 µM,> 100 µM,> 100 µM
CC(=O)NC(CO)C(=O)NC(Cc1ccc(O)cc1)C(=O)NCC(N)=O (stereo not drawn) (Ac-Ser-Tyr-Gly-NH2; configuration not given here),> 100 µM,> 100 µM,> 100 µM,> 100 µM,> 100 µM,> 100 µM,> 100 µM,> 100 µM,> 100 µM,> 100 µM,> 100 µM,> 100 µM
CCOC(=O)NC(=S)NC(C)c1ccccc1 (centres undefined),> 100 µM,> 100 µM,> 100 µM,> 100 µM,> 100 µM,> 100 µM,> 100 µM,> 100 µM,> 100 µM,> 100 µM,> 100 µM,> 100 µM
CCOP(=O)(OCC)C(=C1C=C(C(C)(C)C)C(=O)C(C(C)(C)C)=C1)P(=O)(OCC)OCC,> 6.25 µM,> 6.32 µM,> 10 µM,> 10 µM,> 10 µM,> 10 µM,> 10 µM,> 10 µM,> 10 µM,4.04 µM,> 10 µM,> 10 µM
CCCc1cc(-c2ccc(-c3cc(CCC)c(C=O)[nH]3)s2)[nH]c1C=O,> 100 µM,> 100 µM,> 100 µM,> 100 µM,> 100 µM,> 100 µM,> 100 µM,> 100 µM,> 100 µM,> 100 µM,> 100 µM,> 100 µM
CC(=O)Nc1nnc(S(=O)(=O)NC(=S)Nc2ccc(Cl)cc2)s1,> 100 µM,> 100 µM,> 100 µM,> 100 µM,> 100 µM,> 100 µM,> 100 µM,> 100 µM,> 100 µM,> 100 µM,> 100 µM,> 100 µM
N#CCN(Cc1ccccc1)[C@@H]1CCC[C@]1(O)C#Cc1ccc2c(c1)OCO2,77.4 µM,48.1 µM,35.4 µM,57.1 µM,51.8 µM,32.2 µM,42.2 µM,41.5 µM,40.9 µM,69.5 µM,37.9 µM,37.3 µM
CC1=C(C)C(=O)C(C2=C(C3=CC(=O)C(C)=C(C)C3=O)C(=O)c3ccccc3C2=O)=CC1=O,5.66 µM,7.22 µM,11.1 µM,5.3 µM,36.7 µM,8.07 µM,18 µM,25.8 µM,14.1 µM,12.4 µM,4.22 µM,4.62 µM
CC1(C)CC2(C)ON=C(c3ccccc3)N2c2ccccc2N1 (centres undefined),60.2 µM,> 100 µM,> 100 µM,75.6 µM,74.6 µM,> 100 µM,93 µM,68.1 µM,> 100 µM,56.7 µM,58.3 µM,27.9 µM
CC(C)OP(=O)(OC(C)C)C(Nc1cccc(C(F)(F)F)c1)c1ccccc1 (centres undefined),> 100 µM,> 100 µM,> 100 µM,65.5 µM,> 100 µM,> 100 µM,87.3 µM,> 100 µM,> 100 µM,> 100 µM,> 100 µM,> 100 µM
COc1cccc(C(=O)N[C@@H]2[C@H](O)[C@@H](CO)O[C@H]2n2cnc3c(N)ncnc32)c1,> 100 µM,> 100 µM,> 100 µM,> 100 µM,> 100 µM,> 100 µM,> 100 µM,> 100 µM,> 100 µM,> 100 µM,> 100 µM,> 100 µM
O=[N+]([O-])c1ccc2[nH]c(O)c(N=NC(=S)Nc3ccccc3)c2c1,15.2 µM,20 µM,27 µM,> 100 µM,8.62 µM,31.8 µM,> 100 µM,27.6 µM,> 100 µM,38.9 µM,27.4 µM,29 µM
NCCC1([N+](=O)[O-])CCNCC1,> 100 µM,> 100 µM,> 100 µM,> 100 µM,> 100 µM,> 100 µM,> 100 µM,> 100 µM,> 100 µM,> 100 µM,> 100 µM,> 100 µM
CCc1n[nH]c(=S)n1/N=C\c1ccc(-c2ccccc2[N+](=O)[O-])o1,> 100 µM,> 100 µM,> 100 µM,57.8 µM,81.5 µM,> 100 µM,88.1 µM,> 100 µM,57.8 µM,> 100 µM,> 100 µM,> 100 µM
O=C1C(NS(=O)(=O)c2ccccc2)=C(N(Cc2ccccc2)Cc2ccccc2)C(=O)c2ccccc21,> 100 µM,77.4 µM,> 100 µM,> 100 µM,> 100 µM,> 100 µM,72.7 µM,> 100 µM,> 100 µM,> 100 µM,> 100 µM,> 100 µM
COC(=O)C1(C)OC(C)=NC1(C(=O)OC)C(=O)OC (centres undefined),> 100 µM,> 44 µM,> 100 µM,> 100 µM,> 100 µM,> 100 µM,> 100 µM,> 100 µM,> 100 µM,> 100 µM,> 100 µM,> 100 µM
C[N+]12CCCCC1C(CN1C(=O)c3ccccc3C1=O)CCC2 (centres undefined),> 100 µM,> 100 µM,> 100 µM,> 100 µM,> 100 µM,> 100 µM,> 100 µM,> 100 µM,> 100 µM,> 100 µM,> 100 µM,> 100 µM
